Source: patent US20070059242A1, “METHODS TO IDENTIFY THERAPEUTIC AGENTS” (priority 2005, published 2007)

Columns and labels:
ICAM-1 = assay: Endothelial adhesion molecule expression ELISA, ICAM-1; format: cell-based, human; settings: for integrin (ICAM-1) expression: HAAE-1, not complexed with LDL
Experimental: Endothelial cell surface adhesion molecule expression was measured by ELISA, using anti-human CD54 (ICAM-1), CD106 (VCAM-1) and CD62E (E-Selectin) antibodies (Leinco Technologies, Inc., St. Louis, Mo.). The ELISA method was modified from previously described procedures.
Cells were then incubated with antibodies to VCAM-1, E-selectin, or ICAM-1 diluted 1:400 in PBS containing 5% FCS at 37° C. for 30 min. Wells were washed two times with PBS, then incubated with horseradish peroxidase (HRP)-conjugated goat anti-mouse IgG (Southern Biotechnology Associates, Birmingham, Ala., USA) in PBS/5% FCS at 37° C. for 30 min. The wells were washed four times with PBS, then incubated with H2O2/3,3′,5,5′-tetramethyl-benzidine peroxidase substrate (Pierce Chemical, Rockford, Ill., USA) for 30 min in the dark. The reaction was stopped by adding 25 μl of 8 N H2SO4, and the plates read on a microplate reader, blanking on wells stained with only secondary antibody. Each assay was performed in triplicate and the data are reported as the mean±SEM as a percentage of the expression level of the vehicle. To study the effect of cholesterol ozonation product 5a concentration (5-50 μM) on E-selectin expression, the assay was performed in an identical fashion as described above, with each point being the mean±SEM of at least duplicate measurements.

CD36 = assay: Scavenger receptor expression by flow cytometry, CD36; format: cell-based, murine
Experimental: (§1) Cell surface CD36 and SR-A were measured by flow cytometry using CD36 (BD Biosciences Pharmingen, San Diego, Calif.) and CD204 (Serotec, Oxford, UK) specific monoclonal antibodies. See Liao et al. (2000) Arterioscler. Thromb. Vasc. Biol. 20: 1968-75; Hu et al. (1996) Blood 87: 2020-28. Murine macrophage J774A.1 cells were serum-starved overnight in media with 0.5% BSA. Cells (1×10^6) treated with cholesterol ozonation products or cholesterol ozonation product complexed with LDL for specified times were then washed twice with PBS. After harvesting the cells by scraping, they were fixed with 6% paraformaldehyde for 20 min. Cells were then resuspended in PBS containing 2% heat-inactivated FCS, 0.05% NaN3 and appropriate primary antibody, antibody conjugate or isotype control (1:100 dilution) and incubated on ice for 30 min. Expression of either CD36 or SR-A was determined with CD36 (BD Biosciences Pharmingen, San Diego, Calif.) and CD204 (Serotec, Oxford, U.K.) specific monoclonal antibodies, respectively. After washing off the primary antibody, secondary antibodies were added, cells were washed again, then analyzed on a FACS calibur 2 (Becton Dickinson, Sparks, Md.) flow cytometer and analyzed by CellQuant software. Results were expressed as mean fluorescence intensity±standard error of the mean (SEM) of at least duplicate determinations. Significance was determined using a student two-tail t test, with (*) indicating p<0.05, and (**) indicating p<0.01 versus the control.

[1] = test system: Class A scavenger receptor (SR-A); assay: Scavenger receptor expression by flow cytometry, SR-A; format: cell-based, murine; settings: for upregulation of SR-A: J774A.1, 25 μM with LDL (100 μg/ml protein), 6 h; for SR-A expression: cultured macrophages, in the absence of LDL
Experimental: as §1

J774A.1 macrophages = assay: Uptake and localization in macrophages by fluorescence microscopy; format: cell-based, murine; settings: 50 μM dansyl derivative, 5 min to 1 h; not complexed with LDL
Experimental: J774A.1 cells were plated in 8-well chambered slides (Nalge Nunc International). Cells were gently washed twice with PBS, pH 7.4 before 5 min or 1 h exposure to 50 μM dansyl derivative of cholesterol ozonation product 5d or 5e, dansyl cholesterol derivative 9c or 9d, or dansyl hydrazine diluted in media without FCS (0.05% v/v final DMSO concentration). [drawing 28] Media was removed by aspiration and cells were fixed immediately in 95% ice cold methanol for 5 min. Cells were mounted in glycerol containing Antifade reagent (Molecular Probes). Fluorescence images were documented using DeltaVision Deconvolution microscope (API, Issaquah WA) equipped with a Photometrics CH350L liquid cooled CCD camera attached to an Olympus IX—70 inverted microscope. […] All images were deconvolved using constrained iterative algorithms (10 iterations) of DeltaVision software (softWoRx, v2.5). The deconvolved images were subsequently processed using softWoRx, v2.5.
In some experiments, murine macrophage RAW 264.7 (ECACC 91062702) cells were grown in RPMI (Gibco) with 10% FCS at 37° C. with 5% CO2. For fluorescence imaging, cells were incubated on cover slips in 6-well chambered plates (Costar) for 12 h, gently washed 3 times in PBS at pH 7.4, and incubated with 50 μM dansyl derivative of cholesterol ozonation product 5d or 5e, dansyl cholesterol derivative 9c or 9d, in RPMI with 10% FCS for 5, 15, 30, and 60 min. A solution of the dansyl derivative was then added in DMSO [final DMSO, 0.05% (v/v)]. Media was removed by aspiration, and cells were washed twice with PBS, followed by fixing in paraformaldehyde (3.7% in PBS) for 10 min. Cover slips were mounted in MOWIOL 4-88 (Calbiochem). Microscopy was performed using an inverted Zeiss Axioscope 2 Plus fluorescence microscope, and images were obtained with a Zeiss Axiocam digital camera using Axiovision software (version 3.1). The data were collected using a 63× oil immersion lens and DAPI filter (excitation 360/emission 460), and images were processed with Axiovision software and Adobe software (Photoshop 6.0).

J774.1 macrophages = assay: Lipid-loading assay (foam cell formation); format: cell-based, murine; settings: J774.1, 72 h, LDL 100 μg/mL with or without compound 20 μM
Experimental: Lipid-loading assay (foam cell formation). J774.1 macrophages were incubated in ATCC-recommended media containing 10% fetal bovine serum under a controlled atmosphere of 5 or 7% CO2 at 37° C., in 8-well chamber slides. […] At termination, cells were washed twice with PBS (pH 7.4). The cells were then fixed with 6% (v/v) paraformaldehyde in PBS for 30 minutes, rinsed with propylene glycol for 2 minutes and lipids were stained with 5 mg/ml Oil Red 0 for 8 minutes. The cells were counterstained with Harris' hematoxylin for 45 seconds, and background staining was removed with 6% paraformaldehyde followed by washing once in PBS and once in tap water. Cover slips were mounted onto the glass slides using glycerol and the slide preparations were examined by light microscopy. The number of lipid-laden cells was scored out of a total of at least 100 cells counted in a single field in each slide, and expressed as a percentage of total cells. Photographs were taken at 100× magnification.

[2] = test system: U-937 monocytes on endothelial cell monolayers; assay: Monocyte-endothelial cell-cell adhesion by fluorescence spectroscopy; format: cell-based; settings: alone or in complex with LDL
[3] = J774A.1, 25 μM complexed with LDL (100 μg/ml protein), 6 h
[4] = cultured macrophages, in the absence of LDL

SMILES | ICAM-1 levels (ICAM-1; HAAE-1, 25 μM in the presence of LDL, or lipoprotein alone) | integrin (ICAM-1) expression (ICAM-1) | CD36 expression (CD36; [3]) | CD36 expression (CD36; [4]) | upregulation of SR-A [1] | SR-A expression [1] | uptake and localization in macrophages (J774A.1 macrophages) | lipid-loading of macrophages / foam cell formation (J774.1 macrophages) | adhesion of U-937 monocytes to endothelial cell monolayers, above that of LDL alone [2]
CC(C)CCC[C@@H](C)[C@H]1CCC2C(CC=O)C([C@@]3(C)CC[C@H](O)CC3=O)CC[C@@]21C (stereo partly drawn) [4a, 3β-Hydroxy-5-oxo-5,6-secocholestan-6-al] | remain unchanged | no effects | little or no effect | did not increase expression | approximately 3 fold | did not increase expression | efficiently taken up by macrophages | began lipid-loading | no significant increase in equilibrium binding of monocytes to endothelial cells
CC(C)CCC[C@@H](C)[C@H]1CCC2C3C(CC[C@@]21C)[C@@]1(C)CC[C@H](O)C[C@@]1(O)[C@@H]3C=O (stereo partly drawn) [5a, 3β-Hydroxy-5β-hydroxy-B-norcholestane-6β-carboxaldehyde] |  | no effects | little or no effect | did not increase expression | approximately 3 fold | did not increase expression | efficiently taken up by macrophages | began lipid-loading | no significant increase in equilibrium binding of monocytes to endothelial cells
